These results are taken from patent US20080045537A1, “Chemical Compounds” (priority 2004, published 2008).

Like-named read-outs stand apart in the source and are kept apart here.

Common to all, as to format: cell-based
A short description of data set [1]: Compound cytotoxicity in the absence of virus addition (CellTiter-Glo). As to conditions: human; non-infected HOS cultures; read-out: Cytotox (pIC50) (converted). How it is done:
Compounds were profiled against two HIV-1 viruses, the M-tropic (CCR5 utilizing) Ba-L strain and the T-tropic (CXCR4 utilizing) IIIB strain. Both viruses were propagated in human peripheral blood lymphocytes. Compounds were tested for there ability to block infection of the HOS cell line (expressing hCXCR4/hCCR5/hCD4/pHIV-LTR-luciferase) by either HIV-1 Ba-L or HIV-1 IIIB. Compound cytotoxicity was also examined in the absence of virus addition.
HOS cells (expressing hCXCR4/hCCR5/hCD4/pHIV-LTR-luciferase) were harvested and diluted in Dulbeccos modified Eagles media supplemented with 2% FCS and non-essential amino acid to a concentration of 60,000 cells/ml. The cells were plated into 96-well plates (100 ul per well) and the plates were placed in a tissue culture incubator (37° C.; 5% CO2/95% air) for a period of 24 h.
Subsequently, 50 ul of the desired drug solution (4 times the final concentration) was added to each well and the plates were returned to the tissue culture incubator (37° C.; 5% CO2/95% air) for 1 h. Following this incubation 50 ul of diluted virus was added to each well (approximately 2 million RLU per well of virus). The plates were returned to the tissue culture incubator (37° C.; 5% CO2/95% air) and were incubated for a further 96 h.
Following this incubation the endpoint for the virally infected cultures was quantified following addition of Steady-Glo Luciferase assay system reagent (Promega, Madison, Wis.). Cell viability or non-infected cultures was measured using a CellTiter-Glo luminescent cell viability assay system (Promega, Madison, Wis.). All luminescent readouts are performed on a Topcount luminescence detector (Packard, Meridien, Conn.).

Data set [2] relates to HIV-1 gp160 (from the HXB2 HIV strain). Kind of data set: Cell/cell fusion assay (HEK-293 expressing HIV-1 tat, rev, gp160 with HOS hCXCR4/hCCR5/hCD4/pHIV-LTR-luciferase cells). The following applies: Human immunodeficiency virus 1, HXB2, HEK293, 24 h, read-out: Fusion assay (pIC50), luciferase readout after 24 h (converted). From the text:
The complete coding sequences of HIV-1 tat (GenBank Accession No. X07861) and rev (GenBank Accession No. M34378) were cloned into pcDNA3.1 expression vectors containing G418 and hygromycin resistance genes, respectively. The complete coding sequence of the HIV-1 (HXB2 strain) gp160 envelope gene (nucleotide bases 6225-8795 of GenBank Accession No. K03455) was cloned into plasmid pCRII-TOPO. The three HIV genes were additionally inserted into the baculovirus shuttle vector, pFastBacMam1, under the transcriptional control of the CMV promoter. A construction of the pHIV-I LTR containing mutated NFkB sequences linked to the luciferase reporter gene was prepared by digesting pcDNA3.1, containing the G418 resistance gene, with Nru I and Bam HI to remove the CMV promoter. LTR-luc was then cloned into the Nru I/Bam HI sites of the plasmid vector. Plasmid preparations were performed after the plasmids were amplified in Escherichia coli strain DH5-alpha. The fidelity of the inserted sequences was confirmed by double-strand nucleotide sequencing using an ABI Prism Model 377 automated sequencer.
Recombinant BacMam baculoviruses were constructed from pFastBacMam shuttle plasmids by using the bacterial cell-based Bac-to-Bac system. Viruses were propagated in Sf9 (Spodoptera frugiperda) cells cultured in Hink's TNM-FH Insect media supplemented with 10% (v/v) fetal bovine serum and 0.1% (v/v) pluronic F-68 according to established protocols.
Human osteosarcoma (HOS) cells that naturally express human CXCR4 were transfected with human CCR5, human CD4 and the pHIV-LTR-luciferase plasmid using FuGENE 6 transfection reagent. Single cells were isolated and grown under selection condition in order to generate a stable HOS (hCXCR4/hCCR5/hCD4/pHIV-LTR-luciferase) clonal cell line. The cells were maintained in Dulbeccos modified Eagles media supplemented with 10% fetal calf serum (FCS), G418 (400 ug/ml), puromycin (1 ug/ml), mycophenolic acid (40 ug/ml), xanthine (250 ug/ml) and hypoxanthine (13.5 ug/ml) to maintain a selection pressure for cells expressing the LTR-luciferase, hCCR5 and hCD4, respectively. Human embryonic kidney (HEK-293) cells stably transfected to express the human macrophage scavenging receptor (Class A, type 1; GenBank Accession No. D90187), were maintained in DMEM/F-12 media (1:1) supplemented with 10% FCS and 1.5 ug/ml puromycin. The expression of this receptor by the HEK-293 cells enhances their ability to stick to tissue culture treated plasticware.
HEK-293 cells were harvested using enzyme-free cell dissociation buffer. The cells were resuspended in DMEM/F-12 media supplemented with 10% FCS and 1.5 ug/ml and counted. Tranductions were performed by direct addition of BacMam baculovirus containing insect cell media to cells. The cells were simultaneously transduced with BacMam baculovirus expressing HIV-1 tat, HIV-1 rev and HIV-1 gp160 (from the HXB2 HIV strain). Routinely an MOI of 10 of each virus was added to the media containing the cells. 2 mM butyric acid was also added to the cells at this stage to increase protein expression in transduced cells. The cells were subsequently mixed and seeded into a flask at 30 million cells per T225. The cells were incubated at 37° C., 5% CO2, 95% humidity for 24 h to allow for protein expression.
HEK and HOS cells were harvested in DMEM/F-12 media containing 2% FCS and DMEM media containing 2% FCS, respectively, with no selection agents added. Compounds were plated as 1 ul spots in 100% DMSO on a 96-well CulturPlate plates. HOS cells (50 ul) were added first to the wells, followed immediately by the HEK cells (50 ul). The final concentration of each cell type was 20,000 cells per well. Following these additions, the cells were returned to a tissue culture incubator (37° C.; 5% CO2/95% air) for an additional 24 h.
Following the 24 h incubation, total cellular luciferase activity was measured using the LucLite Plus assay kit (Packard, Meridien, Conn.). […]

A further data set concerns the target T1, human CXCR4 (Homo sapiens, UniProt P61073).
T1 construct: expressed in transfected cells; host or cells: HEK-293 cells (stably expressing human macrophage scavenging receptor) transduced with human CXCR4 BacMam and Gqi5 BacMam baculoviruses
Kind of data set: Functional FLIPR assay (block of SDF-1 alpha induced [Ca2+]i change). The following applies: HEK-293 cells with human CXCR4 BacMam and Gqi5 BacMam; antagonism of SDF-1 alpha; read-out: Functional assay (pIC50) (converted). How it is done: Human embryonic kidney (HEK-293) cells were maintained and harvested as described above. Cells were plated in 96-well, black clear bottom, poly-lysine coated plates at a concentration of 40,000 cells per well in a final volume of 100 ul containing human CXCR4BacMam (MOI=25) and Gqi5 BacMam (MOI=12.5). The cells were incubated at 37° C., 5% CO2, 95% humidity for 24 h to allow for protein expression.
After the required incubation time the cells were washed once with 50 ul of fresh serum-free DMEM/F12 media containing probenicid. 50 ul of dye solution was then added to the cells (Calcium Plus Assay Kit Dye; Molecular Devices) was dissolved in 200 ml of the above probenicid/BSA containing media and incubated for 1 h. Cell plates were transferred to a Fluorometric Imaging Plate Reader (FLIPR). Upon addition the effect of the compounds on the change in [Ca^2+]i was examined to determine if the compounds were agonists or antagonists (ability to block SDF-1 alpha activity) at the CXCR4 receptor. IC50 values are determined and pKb values are calculated using the Leff and Dougall equation: KB=IC50/((2+([agonist]/EC50ˆb)ˆ1/b−1) Where IC50 is that defined by the antagonist concentration-response curve [agonist] is the EC80 concentration of agonist used EC50 is that defined by the agonist concentration-response curve b is the slope of the agonist concentration-response curve.

Data set [3] deals with HIV-1 IIIB (T-tropic, CXCR4 utilizing). Description: HOS HIV-1 infectivity assay. An outline of the steps: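 HOS cells expressing hCXCR4/hCCR5/hCD4 with an HIV-LTR-luciferase reporter were seeded in DMEM with 2% FCS and cultured 24 h at 37 °C. Compound was added 1 h before virus (~2 million RLU/well), then incubated 96 h. Infection was read by Steady-Glo luciferase; viability of uninfected cultures by CellTiter-Glo.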

Setting [4] is: Human immunodeficiency virus 1, IIIB, as determined by the infectivity assay, strain not stated in Table 2, read-out: Activity Level.
Where [5] appears, read: Human immunodeficiency virus 1, HIV-1 IIIB, HOS cells, 96 h, luciferase readout, read-out: HOS (3B).

T1 sequence (P61073 whole entry): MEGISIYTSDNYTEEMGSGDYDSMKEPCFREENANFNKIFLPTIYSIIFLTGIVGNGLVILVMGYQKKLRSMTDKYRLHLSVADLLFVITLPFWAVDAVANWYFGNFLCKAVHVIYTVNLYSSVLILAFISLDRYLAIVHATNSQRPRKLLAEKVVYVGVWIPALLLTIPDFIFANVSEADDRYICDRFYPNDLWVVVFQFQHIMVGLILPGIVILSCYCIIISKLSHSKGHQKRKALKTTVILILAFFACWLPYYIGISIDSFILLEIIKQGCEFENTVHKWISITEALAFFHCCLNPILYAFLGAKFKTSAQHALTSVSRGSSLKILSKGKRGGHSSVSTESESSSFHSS

In the case of `CCN(Cc1nc2cc(C(=O)NCCc3cnc[nH]3)ccc2[nH]1)C1CCCc2cccnc21` (centres unmarked) [Example 12, 2-{[Ethyl(5,6,7,8-tetrahydro-8-quinolinyl)amino]methyl}-N-[2-(1H-imidazol-4-yl)ethyl]-1H-benzimidazole-5-carboxamide], the IC50 at 96 h in data set [1] is greater than 100000 nM. In addition, the IC50 in data set [2] is 1170 nM; at human CXCR4 it was 447 nM; in data set [3] (setting [4]) it was 100 to 500 nM; in data set [3] (setting [5]) it was 179 nM.

Take `CCN(Cc1nc2cc(C(=O)NCCCN)ccc2[nH]1)C1CCCc2cccnc21` (centres unmarked) [Example 13, N-(3-Aminopropyl)-2-{[ethyl(5,6,7,8-tetrahydro-8-quinolinyl)amino]methyl}-1H-benzimidazole-5-carboxamide]: in data set [1], the IC50 at 96 h is greater than 100000 nM. Also, the IC50 in data set [2] is 1740 nM; on human CXCR4 it was 417 nM; in data set [3] (setting [4]), 500 to 10000 nM; in data set [3] (setting [5]), 594 nM.

On to `CCN(Cc1nc2cc(C(=O)NCCN)ccc2[nH]1)C1CCCc2cccnc21` (centres unmarked) [Example 14, N-(2-Aminoethyl)-2-{[ethyl(5,6,7,8-tetrahydro-8-quinolinyl)amino]methyl}-1H-benzimidazole-5-carboxamide], for which, in data set [1], the IC50 at 96 h was greater than 100000 nM. Further, the IC50 in data set [2] was 2570 nM; on human CXCR4 it was 339 nM; in data set [3] (setting [4]), 100 to 500 nM; in data set [3] (setting [5]) it was 440 nM.

As for `CCN(Cc1nc2cccc(C(=O)NCCCN)c2[nH]1)C1CCCc2cccnc21` (centres unmarked) [Example 15, N-(3-Aminopropyl)-2-{[ethyl(5,6,7,8-tetrahydro-8-quinolinyl)amino]methyl}-1H-benzimidazole-4-carboxamide], the IC50 at 96 h in data set [1] was greater than 100000 nM. For the same molecule, the IC50 in data set [2] was 355 nM; at human CXCR4, 120 nM; in data set [3] (setting [4]), 100 to 500 nM; in data set [3] (setting [5]), 141 nM.

On to `CCN(Cc1nc2cccc(C(=O)NCCCCN)c2[nH]1)C1CCCc2cccnc21` (centres unmarked) [Example 16, N-(4-Aminobutyl)-2-{[ethyl(5,6,7,8-tetrahydro-8-quinolinyl)amino]methyl}-1H-benzimidazole-4-carboxamide], for which the IC50 at 96 h in data set [1] is greater than 100000 nM. Also, the IC50 was 724 nM in data set [2], 288 nM at human CXCR4, 100 to 500 nM in data set [3] (setting [4]) and 238 nM in data set [3] (setting [5]).

For the molecule `CN(Cc1nc2cc(CN)ccc2[nH]1)C1CCCc2cccnc21` (centres unmarked) [Example 17, N-{[5-(Aminomethyl)-1H-benzimidazol-2-yl]methyl}-N-methyl-5,6,7,8-tetrahydro-8-quinolinamine], the IC50 at 96 h in data set [1] was greater than 100000 nM. Moreover, the IC50 was 1290 nM in data set [2], 257 nM on human CXCR4, 500 to 10000 nM in data set [3] (setting [4]) and 1360 nM in data set [3] (setting [5]).

As for `CN(Cc1nc2cc(CNCCCN)ccc2[nH]1)C1CCCc2cccnc21` (centres unmarked) [Example 18, N-[(2-{[Methyl(5,6,7,8-tetrahydro-8-quinolinyl)amino]methyl}-1H-benzimidazol-5-yl)methyl]-1,3-propanediamine], the IC50 at 96 h in data set [1] was greater than 100000 nM. Also, the IC50 is 468 nM in data set [2], 151 nM at human CXCR4, 100 to 500 nM in data set [3] (setting [4]) and 160 nM in data set [3] (setting [5]).

With `CN(Cc1nc2cc(CNCC3CCNCC3)ccc2[nH]1)C1CCCc2cccnc21` (centres unmarked) [Example 19, N-Methyl-N-[(5-{[(4-piperidinylmethyl)amino]methyl}-1H-benzimidazol-2-yl)methyl]-5,6,7,8-tetrahydro-8-quinolinamine], in data set [1], the IC50 at 96 h is greater than 100000 nM. Besides, the IC50 in data set [2] is 501 nM; at human CXCR4, 251 nM; in data set [3] (setting [4]) it was 100 to 500 nM; in data set [3] (setting [5]), 167 nM.

`CN(Cc1nc2cc(C(=O)NCc3ccc(CN)cc3)ccc2[nH]1)C1CCCc2cccnc21` (centres unmarked) [Example 20, N-{[4-(Aminomethyl)phenyl]methyl}-2-{[methyl(5,6,7,8-tetrahydro-8-quinolinyl)amino]methyl}-1H-benzimidazole-5-carboxamide]: the IC50 at 96 h in data set [1] was greater than 100000 nM. In addition, the IC50 in data set [2] is 5620 nM; at human CXCR4, greater than 100000 nM; in data set [3] (setting [4]), 500 to 10000 nM; in data set [3] (setting [5]), 2350 nM.

Take `CN(Cc1nc2cccc(C(=O)N3CCNCC3)c2[nH]1)C1CCCc2cccnc21` (centres unmarked) [Example 21, N-Methyl-N-{[4-(1-piperazinylcarbonyl)-1H-benzimidazol-2-yl]methyl}-5,6,7,8-tetrahydro-8-quinolinamine]: the IC50 at 96 h in data set [1] was greater than 100000 nM. In addition, the IC50 is 60.3 nM in data set [2], 15.8 nM at human CXCR4, less than 100 nM in data set [3] (setting [4]) and 46 nM in data set [3] (setting [5]).
